Test results published in PMC3812073, “Partial Deletion of Chromosome 8 β-defensin Cluster Confers Sperm Dysfunction and Infertility in Male Mice” (PLoS Genetics, 2013).
No end group written: not given here.

Tests used:
[1] = tested on: Pseudomonas aeruginosa O1 (PAO1); experiment: Antimicrobial killing of Pseudomonas aeruginosa PAO1 by synthetic mature β-defensin peptides; assay type: cell-based; details: for bacterial killing after TCEP reduction: reduced peptide (TCEP), 50 µg/ml peptide, PAO1, 3 hours, compared with oxidised form
Source text: The DefbΔ9/DefbΔ9 mice homozygous for the deletion have no obvious gross phenotype compared to littermate controls after 8 generations of backcrossing to C57Bl/6. No change in size, weight or appearance is apparent, except mice carrying the mutant allele have paler tails by virtue of the Agouti transgene included in the MICER vector (data not shown). β-defensins are classically known as antimicrobial peptides, so we tested the mature peptides in vitro against a Gram-negative bacterium (Pseudomonas aeruginosa, PAO1). […] Despite deleting the expression of these antimicrobials from the homozygous mice, there is no indication that the mutant mice have an increased inflammatory profile under normal animal housing conditions. There is no elevation in levels of TNF-α or IL-6 or type I interferon in sera from mutant versus wild-type mice (Figure 1D).
Supplementary file pgen.1003826.s003.tif: Figure S3 Level of antimicrobial killing against Pseudomonas aeruginosa O1 (PAO1) by the reduced and oxidized peptides. β-defensins with the mature peptide sequences (as shown in Table 1) were purchased from Almac Sciences (Scotland) Limited in an oxidised form. They were tested for their ability to kill PAO1 in 3 hours at various concentrations of peptide. […] TCEP alone had no effect on bacterial survival (data not shown). […] (TIF) Click here for additional data file.

wild-type cauda sperm [2] = experiment: A23187-induced acrosome reaction of wild-type sperm, Coomassie G250 stain; assay type: cell-based, mouse; details: wild-type (+/+) sperm treated with A23187, T90 minutes, 157 of 293 sperm, untreated control 14%
Description: (§1) We treated sperm from wild-type littermates (+/+) with A23187 to release calcium and induce AR, and examined their ultrastructure by TEM at the T90 minutes time point (Figure S4).
Cauda sperm were isolated in modified Tyrode's medium, fixed in 4% formalin for 15 mins. Sperm were spun down (1000× g 5 mins) then washed once in 0.1 M ammonium acetate (pH 9.0) and resuspended in a final volume of approximately 50 µl. An aliquot of 20 µl was smeared on glass slide, allowed to air dry then stained for 2 mins with a solution of 0.22% Coomassie blue G250 (wt/v) in 50% methanol (v/v) and 10% acetic acid (v/v). Slides were washed 3 times in distilled water, air-dried and mounted in glycerol. Acrosome integrity of at least 150 sperm per animal was assessed by the presence or absence of an intense blue stain on the anterior sperm head (mean ± SD; n = 3 pairs).

wild-type cauda sperm [3] = experiment: TEM of microtubule structure in tails of A23187-treated wild-type sperm; assay type: cell-based, mouse; details: wild-type cauda sperm treated with A23187 (1 µM in the Figure S4 legend), T90 minutes, 101/195 tails in focus, control 3%
Description: as §1
Epididymides and decapsulated testis were fixed with 2% paraformaldehyde (PFA), 2.5% glutaraldehyde in 0.1M sodium cacodylate buffer + 0.04% CaCl2 for 30 mins at room temperature. The tissues were cut roughly into 1 mm cubes and further fixed overnight at 4°C. Fixed cells were rinsed in 0.1M sodium cacodylate buffer + 0.4% CaCl2, post-fixed in 1% osmium tetroxide (OsO4, Agar Scientific) for one hour, and dehydrated in sequential steps of acetone (25%, 50%, 75% and 100% twice) prior to impregnation in increasing concentrations (25%, 50%, 75%) of resin (TAAB Lab Equipment) in acetone followed by 100% resin for 3 times, placed in moulds and polymerised at 60°C for 24 hrs. Ultrathin sections of 70 nm were subsequently cut using a diamond knife on a Leica EM UC7 ultramicrotome. Sections were stretched with chloroform to eliminate compression and mounted on Pioloform filmed copper grids prior to staining with 1% aqueous uranyl acetate and lead citrate (Leica). They were viewed on a Philips CM100 Compustage (FEI) Transmission Electron Microscope with images collected using an AMT CCD camera (Deben). […]

sperm = details: 10 µM A23187; cited from earlier work
Source text: We sought to understand why sperm from the DefbΔ9/DefbΔ9 have this precocious capacitation and increased spontaneous AR. Sperm require an increase in intracellular calcium, which causes hyperactivation and allows progression to the AR. Mice deleted for any of the components of the calcium CatSper (cation channels of sperm) channel are infertile due to their lack of ability to transport calcium into the cell, resulting in an inability to undergo capacitation, hyperactivation and prepare sperm for the AR [32]. Conversely, sperm exposed to a ten-fold increase in cauda epididymal calcium concent ...

Q: For `O=C(O)CCP(CCC(=O)O)CCC(=O)O` [TCEP, Tris (2-carboxyethyl) phosphine], which “effect on bacterial survival” value ([1]; TCEP alone, without peptide, data not shown) is on record?
A: no effect

Q: For “HPGTFHVRIKCMPKMTAVFGDNCSFYSSMGDLCNNTKSVCCMVPVRMDNI (disulfide (positions not given here)) [Defb50, mature synthetic mouse β-defensin peptide, missing the second cysteine of the motif]”, which “antimicrobial activity in either oxidised or reduced form” value ([1]; PAO1, Figure S3) is on record?
A: active antimicrobials

Q: What about the “antimicrobial activity, oxidised form” value ([1]; oxidised peptide, PAO1, Figure S3) of the same molecule?
A: poor antimicrobial activity

Q: What about the “bacterial killing after TCEP reduction” value [1] of the same molecule?
A: improves

Q: For `CNc1ccc2oc(C[C@H]3O[C@@]4(CC[C@H]3C)O[C@H]([C@H](C)C(=O)c3ccc[nH]3)[C@H](C)C[C@H]4C)nc2c1C(=O)O` [A23187], which acrosome reacted sperm (wild-type cauda sperm [2]) is on record?
A: 53%

Q: And the “sperm with microtubule disruption (abnormal tail score)” value (wild-type cauda sperm [3])?
A: 52%

Q: What about the acrosome reaction (sperm) of the same molecule?
A: will undergo the AR

Q: What about the sperm motility (sperm) of the same molecule?
A: immotile

Q: With “FDEKCSRVNGRCTAS-CLKNEELVALC-QKNLKCCVTVQPCGKSKSNQSDEGSGHMGTWG (disulfide) [Defb15, mature synthetic mouse β-defensin peptide]” as the molecule, how does the “bacterial killing after TCEP reduction” value [1] read?
A: unremarkable
